From ChEMBL document CHEMBL4118090, “Dihydrothieno-pyridin-one and Tetrahydrothieno-azepinone Inhibitors of Enhancer of Zeste Homologue 2” (ACS Med Chem Lett, 2017)

target: Histone-lysine N-methyltransferase EZH2 (Homo sapiens, UniProt Q15910); assay: Inhibition of methyltransferase activity of flag-tagged EZH2 in human PRC2 complex expressed in Sf9 insect cells using biotinylated histone H3K27 peptide as substrate after 60 mins in presence of 3H-SAM by scintillation proximity assay
Sequence (Q15910 whole entry): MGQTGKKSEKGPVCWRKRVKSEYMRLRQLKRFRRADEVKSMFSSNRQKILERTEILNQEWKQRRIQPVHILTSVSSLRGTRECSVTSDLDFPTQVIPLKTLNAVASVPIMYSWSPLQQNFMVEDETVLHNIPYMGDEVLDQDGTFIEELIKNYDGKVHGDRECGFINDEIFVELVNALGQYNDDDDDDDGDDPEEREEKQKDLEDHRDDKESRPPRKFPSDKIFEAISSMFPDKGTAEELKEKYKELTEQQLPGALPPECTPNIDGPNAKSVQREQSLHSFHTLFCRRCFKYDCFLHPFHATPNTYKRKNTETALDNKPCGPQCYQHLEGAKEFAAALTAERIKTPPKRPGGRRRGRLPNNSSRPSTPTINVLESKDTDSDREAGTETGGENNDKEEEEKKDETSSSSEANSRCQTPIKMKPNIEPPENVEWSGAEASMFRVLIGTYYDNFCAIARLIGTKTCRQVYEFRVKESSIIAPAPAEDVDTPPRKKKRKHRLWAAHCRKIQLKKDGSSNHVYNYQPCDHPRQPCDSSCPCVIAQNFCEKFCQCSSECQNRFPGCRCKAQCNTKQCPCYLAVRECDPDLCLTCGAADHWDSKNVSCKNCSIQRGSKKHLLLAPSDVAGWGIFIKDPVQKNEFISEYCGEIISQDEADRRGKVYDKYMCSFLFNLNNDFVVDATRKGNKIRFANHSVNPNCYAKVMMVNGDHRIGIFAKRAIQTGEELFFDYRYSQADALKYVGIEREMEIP

IC50, ≤ 10 nM:
CC[C@@H](c1sc2c(c1C)CN(C(=O)c1c(C)cc(C)[nH]c1=O)CC2)C1CCN(Cc2ccccn2)CC1
CC[C@@H](c1scc(C(=O)NCc2c(C)cc(C)[nH]c2=O)c1C)C1CCN(Cc2ccc(Cl)cn2)CC1
CC[C@@H](c1sc2c(c1C)C(=O)N(Cc1c(C)cc(C)[nH]c1=O)CC2)C1CCN(Cc2ccccc2)CC1
Cc1cc(C)c(CN2CCCc3sc([C@H](C)C4CCN(Cc5ccccn5)CC4)c(C)c3C2)c(=O)[nH]1
CC[C@@H](c1sc2c(c1C)CN(Cc1c(C)cc(C)[nH]c1=O)CC2)C1CCN(Cc2ccnc(OC)c2)CC1
Cc1cc(C)c(CN2CCCc3sc([C@H](C)C4CCN(CC5CCCCC5)CC4)c(C)c3C2)c(=O)[nH]1
